From patent US20250050671A1, “THERMOSENSITIVE RECORDING LAYER FORMING LIQUID, THERMOSENSITIVE RECORDING MEDIUM AND PRODUCTION METHOD THEREOF, AND IMAGE RECORDING METHOD” (Ricoh Company, Ltd., priority 2021, published 2025)

Test: Measurement of solubility of electron-accepting compound to solvent (saturated solution, gravimetric)
Type: physicochemical
Details: for Electron-accepting compound Solubility to ethanol: Table 2, repeated per forming liquid, 20° C.; for Solubility, alcohol solvent ethanol / Solubility, ester solvent ethyl acetate / Solubility, alcohol solvent isopropyl alcohol / Solubility, alcohol solvent methanol / Solubility, ketone solvent methyl ethyl ketone / Solubility, aromatic solvent toluene: saturated solution at 20° C.±3° C.
Description: <Measurement of Solubility of Electron-Accepting Compound to Solvent> […]
(2) While stirring a stirrer or a stirring rod, an electron-accepting compound was added gradually until insoluble matter of the electron-accepting compound appears at the bottom of the beaker.
(3) The resultant was left to stand for 1 hour or longer with a lid placed on top of the beaker.
(4) If the insoluble matter was completely disappeared by stirring with the stirring rod, the processes (2) to (4) were repeated.
(5) If the insoluble matter was remained after standing for 1 hour or longer, it was determined that preparation of a saturated solution was completed.
A weight (A) of an aluminium cup was weighed with the minimum unit of 1 mg or less.
The part of the transparent supernatant liquid of the saturated solution prepared in 1 was collected by a pipette, and the collected liquid was placed in the aluminium cup (about 0.8 g to about 1.3 g in weight) and a weight of the liquid was weighed with the minimum unit of 1 mg or less.
The aluminium cup in which the liquid was collected was placed in a dryer (120° C.±10° C.). Alternatively, the aluminium cup in which the liquid was collected is placed on a hot plate (120° C.±10° C.) in an area where a local ventilation was installed.
The solvent was evaporated from the liquid for 25 minutes or longer (a lid was placed to prevent inclusion of dusts when a hot plate was used).
The aluminium cup was removed from the drier or hot plate, and was left to stand for 1 minute or longer indoor, followed by weighing the total amount (C) with a unit of 1 mg or less.

Row | Structure (SMILES) | Electron-accepting compound Solubility to ethanol [% by mass] | Solubility, alcohol solvent ethanol [% by mass] | Solubility, ester solvent ethyl acetate [% by mass] | Solubility, alcohol solvent isopropyl alcohol [% by mass] | Solubility, alcohol solvent methanol [% by mass] | Solubility, ketone solvent methyl ethyl ketone [% by mass] | Solubility, aromatic solvent toluene [% by mass]
1 | Oc1ccc(C2(c3ccc(O)cc3)c3ccccc3-c3ccccc32)cc1 [Electron-Accepting Compound 1, 9,9-Bis(4-hydroxyphenyl)fluorene] | 4.7 | 4.7 | 9.0 | 4.5 | 24.8 | 30.2 | 0.7
2 | Cc1ccc(S(=O)(=O)Oc2cccc(NC(=O)Nc3ccccc3)c2)cc1 [Electron-Accepting Compound 3] | 0.6 | 0.6 | 1.6 | 0.8 | 0.6 | 8.1 | 0.1
3 | Cc1ccc(S(=O)(=O)NC(=O)Nc2cccc(OS(=O)(=O)c3ccc(C)cc3)c2)cc1 [Electron-Accepting Compound 4, N-p-toluenesulfonyl-N′-3-(p-toluenesulfonyloxyphenyl)urea] | 0.4 | 0.4 | 2.1 | 0.4 | 0.8 | 12.7 | 0.1
4 | Cc1ccc(S(=O)(=O)Oc2cccc(NC(=O)Nc3cccc(OS(=O)(=O)c4ccc(C)cc4)c3)c2)cc1 [Electron-Accepting Compound 5, N,N′-di-[3-(p-toluenesulfonyloxy)phenyl]urea] | 0.1 | 0.1 | 1.3 | 0.1 | 0.1 | 11.3 | 0.1
5 | O=S(=O)(c1ccc(O)cc1)c1ccc(O)cc1 [Electron-Accepting Compound 6, 4,4′-sulfonylbisphenol, reference compound] | 34.1 | 34.1 | 9.7 | 34.1 | 33.7 | 36.5 | 0.1
